Results taken from BindingDB's records for doi:10.7270/Q2MC8XP5 (Burnham Center For Chemical Genomics, 2013).

molecular target: Protein artemis (Homo sapiens, UniProt Q96SD1); test: IC50 of Artemis nuclease activity blockers – biochemical, fluorescence intensity, dose response (AID 720701)
Sequence (Q96SD1 whole entry): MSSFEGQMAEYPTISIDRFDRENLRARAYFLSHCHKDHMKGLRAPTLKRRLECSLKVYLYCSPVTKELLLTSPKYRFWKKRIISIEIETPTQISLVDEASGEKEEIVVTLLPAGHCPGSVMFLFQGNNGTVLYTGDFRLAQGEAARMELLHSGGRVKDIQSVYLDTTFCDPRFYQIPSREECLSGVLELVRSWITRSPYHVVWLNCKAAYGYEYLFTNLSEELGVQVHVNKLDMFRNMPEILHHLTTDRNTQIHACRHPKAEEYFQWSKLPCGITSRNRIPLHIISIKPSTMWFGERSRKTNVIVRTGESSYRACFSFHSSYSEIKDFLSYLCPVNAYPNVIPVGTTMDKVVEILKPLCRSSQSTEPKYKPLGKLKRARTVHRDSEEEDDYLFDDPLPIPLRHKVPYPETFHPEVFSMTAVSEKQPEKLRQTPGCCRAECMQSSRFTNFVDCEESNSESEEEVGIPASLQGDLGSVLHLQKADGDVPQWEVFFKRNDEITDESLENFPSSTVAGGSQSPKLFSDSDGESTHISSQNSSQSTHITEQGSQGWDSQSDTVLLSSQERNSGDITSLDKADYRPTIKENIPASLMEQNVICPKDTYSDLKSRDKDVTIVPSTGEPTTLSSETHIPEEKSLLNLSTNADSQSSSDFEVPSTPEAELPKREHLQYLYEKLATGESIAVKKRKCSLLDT

COc1ccc(O)c(CN=Nc2nc(Nc3ccccc3)nc(-n3nc(C)cc3C)n2)c1 [(6E)-6-[[2-[4-(3,5-dimethylpyrazol-1-yl)-6-phenylazanyl-1,3,5-triazin-2-yl]hydrazinyl]methylidene]-4-methoxy-cyclohexa-2,4-dien-1-one] and COc1ccc(Nc2nc(N=NCc3ccccc3)nc(NCc3ccco3)n2)cc1 are within 1.5-fold of each other in IC50: 2.23 µM for the first, 2.65 µM for the second.

N#CC(C(=O)NCc1ccccc1)c1nc2ccccc2nc1N1CCCC1 (stereo unspecified) [2-cyano-N-(phenylmethyl)-2-(3-pyrrolidin-1-ylquinoxalin-2-yl)ethanamide] and O=c1c2ccccc2nc(N=NCc2c(O)ccc3ccccc23)n1O [SMR000145705] are within 1.5-fold of each other in IC50: 5 µM for the first, 4.68 µM for the second.

Going from O=C1C=Cc2ccccc2/C1=C/NC12CN3CCN(CN(C3)C1)C2 [MLS000071484] to CCCCc1ccc(/C=C2\C(=O)ON=C2c2ccccc2)s1 [4-(5-Butyl-thiophen-2-ylmethylene)-3-phenyl-4H-isoxazol-5-one], the IC50 rises from 3.64 µM to 16.2 µM (4.5-fold).

Compared with CCCCCCCCCC(N=O)c1ccccn1 (stereo unspecified) [1-Pyridin-2-yl-decan-1-one oxime], CC(N=O)c1ccccc1C(=O)O (stereo unspecified) [SMR000038583] is 3-fold lower in IC50: 11 µM for the first, 3.62 µM for the second. The second is the more potent here.

Going from NS(=O)(=O)c1ccc2c(c1)C1C=CCC1C(C1CC=CCC1)N2 (stereo unspecified) [MLS000530517] to CN1c2cccc3cccc(c23)C1N=O (stereo unspecified) [1-Methyl-1H-benzo[cd]indol-2-one oxime], the IC50 rises from 9.58 µM to greater than 20 µM. The first is the more potent here.

Going from CCOc1ccc(-n2c(O)c(C=Nc3ccc(N4CCOCC4)cc3)c(=O)[nH]c2=O)cc1 [SMR000109118] to C=CCN1C(=O)S/C(=C\c2ccc(N3CCOCC3)cc2C)C1=O [(5Z)-5-[[2-methyl-4-(4-morpholinyl)phenyl]methylidene]-3-prop-2-enylthiazolidine-2,4-dione], the IC50 falls from greater than 20 µM to 1.5 µM.

Compared with N#CC1C(=N)Oc2[nH]nc(-c3cccs3)c2C1c1ccoc1 (stereo unspecified) [6-amino-4-(furan-3-yl)-3-thiophen-2-yl-2,4-dihydropyrano[2,3-c]pyrazole-5-carbonitrile], Cc1cccc(CN2C(=O)N/C(=C/c3ccc(C)s3)C2=O)c1 is lower in IC50: greater than 20 µM for the first, 16.4 µM for the second. The second is the more potent here.

Going from CCCCOc1ccc(/C=C2/Sc3ccccc3C2=O)cc1 [2-(4-Butoxy-benzylidene)-benzo[b]thiophen-3-one] to CCN(CC)c1ccc(CN=Nc2nc3ccccc3[nH]2)c(O)c1 [MLS000541069], the IC50 falls from greater than 20 µM to 15.5 µM. The second is the more potent here.
